# Assay results reported in ChEMBL document CHEMBL5370626, “Targeting the Subpocket Enables the Discovery of Thiadiazole-Pyridazine Derivatives as Glutaminase C Inhibitors” (ACS Med Chem Lett, 2023).
# Active and inactive are the calls of the source. The rule behind the calls is not given here.
# Key:
# A549 [1] = experiment: Antiproliferative activity against human A549 cells assessed as reduction in cell viability incubated for 72 hrs by Celltiter-glo assay; format: functional, cell-based; conditions: A549, 72 h
# [2] = (§1) Inhibition of human recombinant GAC K320A mutant (73 to 598 residues ) expressed in Escherichia coli BL21 (DE3) cells incubated for 10 mins by fluorometric assay
# A549 [3] = experiment: Antitumor activity against human A549 cells xenografted in Balb/c nude mouse assessed as tumor growth inhibition at 100 mg/kg, po administered once daily 24 days relative to control; format: functional; conditions: A549, 576 h, time 24 day, read-out: TGI
# [4] = molecular target: T1, Glutaminase kidney isoform, mitochondrial (Homo sapiens) (UniProt O94925); experiment: Inhibition of human GAC in A549 cells assessed as reduction in glutamate level at 100 to 1000 nM incubated for 16 hrs by colorimetric assay; format: cell-based; conditions: dose 100-1000 nM
# T1 sequence (whole entry): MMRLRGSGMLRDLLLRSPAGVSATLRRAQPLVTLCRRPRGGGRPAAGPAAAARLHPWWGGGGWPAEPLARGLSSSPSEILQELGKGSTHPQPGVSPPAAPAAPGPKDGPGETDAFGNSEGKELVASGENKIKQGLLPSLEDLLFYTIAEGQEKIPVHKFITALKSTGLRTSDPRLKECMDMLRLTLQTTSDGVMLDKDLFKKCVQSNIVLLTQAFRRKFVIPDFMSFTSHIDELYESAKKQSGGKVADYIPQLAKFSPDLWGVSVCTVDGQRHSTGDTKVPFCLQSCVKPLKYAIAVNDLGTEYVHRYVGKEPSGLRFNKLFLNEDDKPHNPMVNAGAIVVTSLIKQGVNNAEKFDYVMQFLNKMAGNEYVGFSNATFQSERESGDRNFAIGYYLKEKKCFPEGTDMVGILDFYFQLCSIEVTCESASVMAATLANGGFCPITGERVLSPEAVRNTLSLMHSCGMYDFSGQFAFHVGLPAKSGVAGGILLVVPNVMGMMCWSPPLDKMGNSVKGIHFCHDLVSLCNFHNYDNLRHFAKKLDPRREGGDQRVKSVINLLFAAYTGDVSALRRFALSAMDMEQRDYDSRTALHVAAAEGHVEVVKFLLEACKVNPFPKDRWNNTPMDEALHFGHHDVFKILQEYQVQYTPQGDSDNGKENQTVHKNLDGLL
# A549 [5] = experiment: Inhibition of colony formation in human A549 cells assessed as reduction of colony number measured after 4 days by crystal violet staining-based colony formation assay; format: functional, cell-based; conditions: dose 10-1000 nM, time 4.0 day
# [6] = molecular target: T1, Glutaminase kidney isoform, mitochondrial (Homo sapiens); experiment: Inhibition of human GAC in A549 cells assessed as induction of ROS level incubated for 16 hrs by DCFH-DA staining based flow cytometric analysis; format: cell-based; conditions: dose 100-1000 nM
# Homo sapiens = organism: Homo sapiens; experiment: as §1
# [7] = molecular target: T1, Glutaminase kidney isoform, mitochondrial (Homo sapiens); experiment: Inhibition of GAC (unknown origin)
Structure (SMILES),IC50 (A549 [1]) [nM],EC50 [2] [nM],further results
O=C(CCc1ccccc1)Nc1nnc(N[C@@H]2CCN(c3cccnn3)C2)s1,744,68.3,
O=C(Cc1ccc2ccccc2c1)Nc1nnc(N[C@@H]2CCN(c3cccnn3)C2)s1,370,26.1,
O=C(Cc1cccc(C(=O)OCC2CCC2)c1)Nc1nnc(N[C@@H]2CCN(c3cccnn3)C2)s1,13.8,9.89,
O=C(Cc1cccc(C(=O)NC2CCC(F)(F)CC2)c1)Nc1nnc(N[C@@H]2CCN(c3cccnn3)C2)s1,1060,4.26,
CO[C@H](C(=O)Nc1nnc(N[C@@H]2CCN(c3cccnn3)C2)s1)c1ccccc1,12.6,3.25,
Cc1ccccc1Oc1cccc(CC(=O)Nc2nnc(N[C@@H]3CCN(c4cccnn4)C3)s2)c1,37.1,37.5,
O=C(Cc1cccc(OC(F)(F)F)c1)Nc1ccc(CCCCc2nnc(NC(=O)Cc3ccccn3)s2)nn1 [TELAGLENASTAT],18.8,16.4,inhibition in vivo at 100 mg/kg (A549 [3]): 34.5%
O=C(Cc1cccc(OC(F)(F)F)c1)Nc1nnc(N[C@@H]2CCN(c3cccnn3)C2)s1,1.26,92.8,
CC(C)OC(=O)c1cccc(CC(=O)Nc2nnc(N[C@@H]3CCN(c4cccnn4)C3)s2)c1,9.28,4.03,inhibition [4]: Active; inhibition (A549 [5]): Dose-Dependent Effect; inhibition [6]: Dose-Dependent Effect
O=C(Cc1ccc(C(=O)O)cc1)Nc1nnc(N[C@@H]2CCN(c3cccnn3)C2)s1,4720,14.2,
COC(=O)c1ccc(CC(=O)Nc2nnc(N[C@@H]3CCN(c4cccnn4)C3)s2)cc1,47.5,4.31,
CCOC(=O)OCOC(=O)c1cccc(CC(=O)Nc2nnc(N[C@@H]3CCN(c4cccnn4)C3)s2)c1,1010,3.74,
O=C(Cc1cccs1)Nc1nnc(N[C@@H]2CCN(c3cccnn3)C2)s1,222,5.18,
Cc1oc(=O)oc1COC(=O)c1cccc(CC(=O)Nc2nnc(N[C@@H]3CCN(c4cccnn4)C3)s2)c1,5470,3.8,
O=C(Nc1nnc(N[C@@H]2CCN(c3cccnn3)C2)s1)C1(c2ccccc2)CC1,947,> 1000,
O=C(Cc1cccc(-c2nnn[nH]2)c1)Nc1nnc(N[C@@H]2CCN(c3cccnn3)C2)s1,> 10000,3.66,
O=C(Cc1cccnc1)Nc1nnc(N[C@@H]2CCN(c3cccnn3)C2)s1,498,9.01,
O=C(Cc1cccc(Cc2ccccc2)c1)Nc1nnc(N[C@@H]2CCN(c3cccnn3)C2)s1,13.1,9.3,
CC(=O)OCOC(=O)c1cccc(CC(=O)Nc2nnc(N[C@@H]3CCN(c4cccnn4)C3)s2)c1,1090,3.56,
O=C(Cc1ccco1)Nc1nnc(N[C@@H]2CCN(c3cccnn3)C2)s1,308,7.45,
CN(C)C(=O)COC(=O)c1cccc(CC(=O)Nc2nnc(N[C@@H]3CCN(c4cccnn4)C3)s2)c1,> 10000,3.15,
O=C(Cc1ccc(CO)cc1)Nc1nnc(N[C@@H]2CCN(c3cccnn3)C2)s1,1710,12.4,
CC1(C)OB(c2cccc(CC(=O)Nc3nnc(N[C@@H]4CCN(c5cccnn5)C4)s3)c2)OC1(C)C,1260,8.2,
O=C(Cc1cccc(C(=O)NC2CC(F)(F)C2)c1)Nc1nnc(N[C@@H]2CCN(c3cccnn3)C2)s1,1070,8,
O=C(Cc1cccc(C(=O)OCC2CC2)c1)Nc1nnc(N[C@@H]2CCN(c3cccnn3)C2)s1,51.4,12.9,

# More lines, main results first:
IC50 (A549 [1]) [nM],EC50 [2] [nM],Structure (SMILES),further results
103,3.42,O=C(Cc1ccccc1)Nc1nnc(N[C@@H]2CCN(c3cccnn3)C2)s1,
889,1.55,CCOP(=O)(OCC)c1cccc(CC(=O)Nc2nnc(N[C@@H]3CCN(c4cccnn4)C3)s2)c1,
> 10000,9.68,O=C(Cc1cccc(P(=O)(O)O)c1)Nc1nnc(N[C@@H]2CCN(c3cccnn3)C2)s1,
732,1.89,O=C(Cc1cccc(C(=O)O)c1)Nc1nnc(N[C@@H]2CCN(c3cccnn3)C2)s1,INH (Homo sapiens): 157 nM; INH [7]: 1.48 nM
12.9,0.793,COC(=O)c1cccc(CC(=O)Nc2nnc(N[C@@H]3CCN(c4cccnn4)C3)s2)c1,
1170,3.13,O=C(Cc1cccc(C(=O)NCCF)c1)Nc1nnc(N[C@@H]2CCN(c3cccnn3)C2)s1,
> 10000,2.63,CS(=O)(=O)NC(=O)c1cccc(CC(=O)Nc2nnc(N[C@@H]3CCN(c4cccnn4)C3)s2)c1,
736,2.1,N#Cc1cccc(CC(=O)Nc2nnc(N[C@@H]3CCN(c4cccnn4)C3)s2)c1,
1830,5.36,CN(C)C(=O)c1cccc(CC(=O)Nc2nnc(N[C@@H]3CCN(c4cccnn4)C3)s2)c1,
60.4,6.52,O=C(Cc1cccc(C(F)(F)F)c1)Nc1nnc(N[C@@H]2CCN(c3cccnn3)C2)s1,
60.4,3.31,COc1cccc(CC(=O)Nc2nnc(N[C@@H]3CCN(c4cccnn4)C3)s2)c1,
103,2.68,CCOC(=O)c1cccc(CC(=O)Nc2nnc(N[C@@H]3CCN(c4cccnn4)C3)s2)c1,
108,4.54,CNC(=O)c1cccc(CC(=O)Nc2nnc(N[C@@H]3CCN(c4cccnn4)C3)s2)c1,
300,2.37,O=C(Cc1cccc(F)c1)Nc1nnc(N[C@@H]2CCN(c3cccnn3)C2)s1,
1180,5.67,O=C(Cc1cccc(B(O)O)c1)Nc1nnc(N[C@@H]2CCN(c3cccnn3)C2)s1,
368,2.16,NC(=O)c1cccc(CC(=O)Nc2nnc(N[C@@H]3CCN(c4cccnn4)C3)s2)c1,
1080,1.7,O=C(Cc1cccc(O)c1)Nc1nnc(N[C@@H]2CCN(c3cccnn3)C2)s1,
